Results reported in patent US4390523A, “Sorbose for inhibiting fermentation acids in the mouth” (priority 1972, dated 1983).
Where “and” joins values, the source holds several entries; their conditions need not be identical. Equal values may be shown once. Entries after “also recorded” stand apart in the source; their conditions may differ. Read-outs that look alike come from different tables or passages of the source.

Tests used:
[1] = cited from earlier work
[2] = cited from earlier work; remark: listed apart in the source
[3] = Urinary biological parameters before and during oral administration of sorbose (Table I); format: in vivo, WISTAR rat
Method: In the course of this experiment, detailed biological examinations concerning the urine and blood were carried out.
The urine examinations comprised the following: determination of the reducing power (copper-neocuproin method), determination of the true glycosuria (glucose-oxydase method), determination of the proteinuria, measurement of the urinary pH, determination of the urinary ionogram relating to the chlorine ions, sodium and potassium.

[4] = rat, in vivo, po
Method: (§4) This test was carried on for four weeks and three months. Each morning, 1 milliliter per 100 grams of body weight of a sorbose solute in water containing 0.330 g/ml was administered orally to each of the animals.
(§5) The examinations of the blood comprised the following:
(§6) determination of the true glycemia (glucose-oxydase dosage),
(§7) determination of the ionemia (chlorides-phosphates-bicarbonates-sodium-potassium), azotemia, proteinemia, albuminemia, calcemia, cholesterolemia, uricemia and creatinemia, the total bilirubinemia and the levels of the alkaline phosphatases, the creatine-phosphokinases and the glutamino-oxaloacetic transaminases (these determinations were effected with the aid of a Technicon SM A 6+SM A 12 autoanalyzer).
(§8) These biological tests were carried out first on animals fed normally and then on the same animals in the course of the following weeks during which sorbose was being administered as a supplement to the food ration, as hereinbefore described.

[5] = tested on: oral bacteria (dilute human saliva); experiment: Formation of acids and lowering of pH by fermentation by oral bacteria (Table III); format: cell-based; conditions: for pH of medium / NaOH necessary for neutralization: 1 ml of 18% solution in 10 ml medium; for pH of medium: saliva, 37° C.; for NaOH necessary for neutralization: N/40 NaOH; for formation of acids / acidification (conclusion) / lowering of the pH to: medium inoculated with dilute saliva
Method: A series of tubes containing 10 ml of a sugarless nutritive culture medium at pH 7 was prepared. These tubes were sterilized by passing them through an autoclave at 120° C. for 20 minutes.
1 ml of sterile water was introduced into a first series of five tubes to make a control series.
1 ml of a sterile 18% solution of dextrose (weight/volume=W/V) was introduced into a second series of five tubes.
1 ml of a sterile 18% solution of saccharose (W/V) was introduced into a third series of five tubes.
1 ml of a sterile 18% solution of sorbose (W/V) was introduced into a fourth series of five tubes.
The sterile solutions of dextrose, saccharose and sorbose were obtained by sterilizing filtration by the usual technique.
A dilution of human saliva was prepared for immediate use and four tubes of each series were inoculated with the same volume of dilute saliva.
The formation of acids was followed by electric measurement of the pH and by determination of the quantity of acids formed; this determination was effected with a N/40 sodium/hydroxide solution, phenolphthalein being used as a neutralization indicator; a first determination was made before incubation, the following four determinations after incubations of 3, 6, 10 and 24 hours, respectively, at 37° C.
The results are assembled in Table III (pH value and value of the number of ml of sodium hydroxide necessary for neutralization).

man = experiment: Hypersorbemia produced in man; format: in vivo; conditions: 1 gram per kg, empty stomach, in one lot
Method: To complete the tests concerned with animals, tests were carried out for hypersorbemia produced in man (ingestion on an empty stomach in one lot of a dose of sorbose equivalent to 1 gram per kg of weight).

[6] = Acute toxicity and lethalness of sorbose in rats; format: in vivo, WISTAR rat; conditions: rat, in vivo, ip; intraperitoneal; WISTAR rats; Karber and Behrens method; read-out: lethal dose 50 (LD50)
Method: (§1) The toxicity of sorbose has been studied in a first series of tests.
(§2) The test animals were ROCKFELLER mice and WISTAR rats.
(§3) Thus, solutes of sorbose (concentrations used: 615, 700, 900, 1000 and 1100 mg per ml) were administered orally, intravenously and intraperitoneally in different doses and concentrations to male mice of the ROCKFELLER type and to male rats of the WISTAR type.

[7] = tested on: male rats of the WISTAR type; experiment: Acute toxicity and lethalness of sorbose in rats; format: in vivo, WISTAR rat; conditions: rats
Method: as §1, §2, §3

[8] = Clinical observation and weight development during oral administration of sorbose (food value); format: in vivo, WISTAR rat; conditions: 0.330 g per 100 g of body weight orally
From the text: The food value of sorbose has been studied in a second series of tests.

[9] = Chromatographic examination of the urine of animals ingesting sorbose; format: in vivo, WISTAR rat
Method: Thus, sorbose was administered orally to rats of the WISTAR type, as a supplement to the usual food ration, in a dose of 0.330 grams per 100 grams of body weight; such a dose would correspond to a daily intake of 198 grams of sorbose in a 60 kg person. This test was carried on for four weeks and three months. Each morning, 1 milliliter per 100 grams of body weight of a sorbose solute in water containing 0.330 g/ml was administered orally to each of the animals.

[10] = Biological parameters of blood before and during oral administration of sorbose (Table II); conditions: WISTAR rats, oral ingestion
Method: as §4, §5, §6, §7, §8

[11] = tested on: viscera: stomach, small intestine, large intestine, liver, kidneys and pancreas; experiment: Anatomical and histopathological observations at the end of the tests; format: in vivo, WISTAR rat
From the text: At the end of the tests the animals were put to death so that anatomical and histopathological observations could be made.

[12] = tested on: ROCKFELLER mice and WISTAR rats; experiment: Overall toxicity and tolerance tests of sorbose in mice and rats; format: in vivo, mouse; rat
From the text: as §1, §2

[13] = tested on: male mice of the ROCKFELLER type; experiment: Acute toxicity and lethalness of sorbose in mice; format: in vivo, ROCKFELLER mouse; conditions: mice
Method: as §1, §2, §3

[14] = Acute toxicity and lethalness of sorbose in mice; format: in vivo, ROCKFELLER mouse; conditions: mouse, in vivo, ip; intraperitoneal; ROCKFELLER mice; Karber and Behrens method; read-out: lethal dose 50 (LD50)
Method: as §1, §2, §3

[15] = tested on: oral bacteria (dilute human saliva); conditions: background statement; cited from earlier work
[16] = 330 mg/100 g oral, a = first week, rats 1-6
[17] = 330 mg/100 g oral, b = fifth week, rats 1-6
[18] = 330 mg/100 g oral, c = thirteenth week, rats 1-6
[19] = prolonged administration orally and in high doses

In the case of cyclamates, the harmfulness ([1]; in vivo) is given as “subject of serious reservations on the part of the medical profession in regards to their harmfulness”.

For O=C(CO)[C@@H](O)[C@H](O)[C@H](O)CO [levulose, reference compound], the hygroscopicity ([2]; printed as "hydroscopic") is given as “very hydroscopic”.

In the case of O=C(CO)[C@H](O)[C@@H](O)[C@H](O)CO [sorbose], the “physiological proteinuria (conclusion)” value ([3]; 330 mg/100 g oral, 13 weeks) is reported as “does not lead to a significant modification of the physiological proteinuria”, the “reducing power in the urine (conclusion)” value ([3]; 330 mg/100 g oral, 13 weeks) is reported as “causes the appearance of the reducing power in the urine” and the “urinary ionogram (conclusion)” value ([3]; 330 mg/100 g oral, 13 weeks) is reported as “does not modify the urinary ionogram”. For the same compound, the “urinary pH (conclusion)” value ([3]; 330 mg/100 g oral, 13 weeks) was “does not modify the urinary pH”, the urinary potassium [3, 16] was 1.10 meq/24 h and 1.03 meq/24 h and 1.68 meq/24 h and 1.26 meq/24 h and 1.48 meq/24 h and 1 meq/24 h and the “urinary total reducing power” value [3, 16] was 56 mg/24 h and 30 mg/24 h and 39 mg/24 h and 38 mg/24 h and 35 mg/24 h and 28 mg/24 h. The urinary chlorides [3, 17] was 1.27 meq/24 h and 0.90 meq/24 h and 1.11 meq/24 h and 1.56 meq/24 h and 1.00 meq/24 h and 1.46 meq/24 h, the “urinary pH” value [3, 17] was 8.5 and 8.2 and 9.2 and 9.1 and the urinary chlorides [3, 18] was 0.92 meq/24 h and 0.79 meq/24 h and 0.70 meq/24 h and 0.90 meq/24 h and 1.08 meq/24 h and 0.76 meq/24 h. For the same compound, the “urinary pH” value [3, 18] was 9 and 8.5 and 8.8 and 9.1, the urinary potassium [3, 18] was 1.19 meq/24 h and 0.99 meq/24 h and 1.20 meq/24 h and 1.26 meq/24 h and 1.08 meq/24 h and the urinary sodium [3, 18] was 0.39 meq/24 h and 0.34 meq/24 h and 0.54 meq/24 h and 0.45 meq/24 h and 0.46 meq/24 h and 0.61 meq/24 h. The “urinary total reducing power” value [3, 18] was 36 mg/24 h and 31 mg/24 h and 32 mg/24 h and 41 mg/24 h, the glycosuria ([3]; during oral administration, 330 mg/100 g, 13 weeks) was “No glycosuria was detected; also recorded: does not result in true glycosuria” and the “serobiogram (conclusion)” value [4] was “does not modify the serobiogram”. The “total reducing power of the serum (conclusion)” value [4] was “does not modify the value of the true glycemia or that of the total reducing power of the serum”, the pH of medium ([5]; 0 hours) was 7.0 and the “NaOH necessary for neutralization” value ([5]; 0 hours) was 2.50 mL. The pH of medium ([5]; 3 hours) was 6.80, the “NaOH necessary for neutralization” value ([5]; 3 hours) was 2.25 mL and the pH of medium ([5]; 6 hours) was 6.90. For the same compound, the “NaOH necessary for neutralization” value ([5]; 6 hours) was 2.20 mL, the pH of medium ([5]; 10 hours) was 6.80 and the “NaOH necessary for neutralization” value ([5]; 10 hours) was 1.90 mL. The pH of medium ([5]; 24 hours) was 6.80, the “NaOH necessary for neutralization” value ([5]; 24 hours) was 1.90 mL and the “formation of acids / acidification (conclusion)” value [5] was “does not give rise to the formation of acids or to a lowering of the pH; also recorded: does not lead, by fermentation by bacteria of the mouth, to the production of fermentation acids or to a lowering of the pH; also recorded: no formation of acids or lowering of the pH; also recorded: does not give rise to the formation of acids by oral bacteria”. The “cariogenicity (conclusion)” value ([5]; oral bacteria) was “non-cariogenic”, the tolerance in man (man) was “well tolerated” and the “total reducing power of the blood in man” value (man) was “heightening of the total reducing power of the blood, which disappeared in a few hours”. For the same compound, the “true glycemia in man” value (man) was “did not produce any variation in the true glycemia”, the LD50 [6] was 12800 mg/kg and the “dose at which no lethalness was observed” value ([7]; intravenously) was 5.5 grams per kg of body weight. The “dose at which no lethalness was observed” value ([7]; orally) was 11 grams per kg of body weight, the clinically detectable anomalies ([8]; four weeks and three months) was “no clinically detectable anomalies were observed” and the weight development ([8]; versus control animals) was “comparable to that observed in control animals”. The solubility in alcohol [2] was “not very soluble in alcohol”, the solubility in water [2] was “rather soluble in water” and the “glucose and sorbose in the urine by chromatographic examination” value [9] was “absence of glucose and the presence of sorbose”. For the same compound, the “tolerance (conclusion from the biological analyses)” value [10] was “tolerated perfectly”, the “anatomical anomaly of the viscera” value [11] was “no anatomical anomaly was found” and the “histopathological change of structure of the organs” value [11] was “did not enable any histopathological change of structure of the organs examined to be detected”. For the same compound, the “toxicity (acute, subacute and chronic)” value ([12]; ROCKFELLER mice and WISTAR rats) was “devoid of acute, subacute and chronic toxicity; also recorded: absence of acute toxicity”, the “clinical and biological tolerance” value [12, 19] was “tolerated perfectly on the clinical and biological planes” and the “histologically detectable visceral lesion” value [12, 19] was “does not result in any histologically detectable visceral lesion”. For the same compound, the “dose at which no lethalness was observed” value ([13]; intravenously) was 10 grams per kg of body weight, the “dose at which no lethalness was observed” value ([13]; orally) was 27.5 grams per kg of body weight and the LD50 [14] was 13600 mg/kg.

In the case of OC[C@@H](O)[C@@H](O)[C@H](O)[C@H](O)CO [mannitol], the laxative effect ([1]; in vivo) is listed as “laxative in high doses”.

For OC[C@@H](O)[C@H](O)[C@@H](O)CO [xylitol], the laxative effect ([1]; high doses) is given as “laxative in high doses”.

For O=C[C@H](O)[C@@H](O)[C@H](O)[C@H](O)CO [dextrose], the “formation of acids and lowering of pH under the action of mouth bacteria (general statement)” value [15] is given as “give rise to a lowering of the pH and a considerable production of acids”, the pH of medium ([5]; 0 hours) is given as 7.0 and the “NaOH necessary for neutralization” value ([5]; 0 hours) is given as 2.50 mL. For the same compound, the pH of medium ([5]; 3 hours) was 6.90, the “NaOH necessary for neutralization” value ([5]; 3 hours) was 2.25 mL and the pH of medium ([5]; 6 hours) was 6.80. For the same compound, the “NaOH necessary for neutralization” value ([5]; 6 hours) was 2.40 mL, the pH of medium ([5]; 10 hours) was 6.50 and the “NaOH necessary for neutralization” value ([5]; 10 hours) was 2.80 mL. For the same compound, the pH of medium ([5]; 24 hours) was 5.30, the “NaOH necessary for neutralization” value ([5]; 24 hours) was 5.70 mL and the “formation of acids / acidification (conclusion)” value [5] was “distinct acidification”. The “lowering of the pH to” value [5] was 5.3.

In the case of OC[C@H]1O[C@@](CO)(O[C@H]2O[C@H](CO)[C@@H](O)[C@H](O)[C@H]2O)[C@@H](O)[C@@H]1O [saccharose], the cariogenic properties [15] is listed as “has cariogenic properties”, the “formation of acids and lowering of pH under the action of mouth bacteria (general statement)” value [15] is listed as “give rise to a lowering of the pH and a considerable production of acids” and the pH of medium ([5]; 0 hours) is listed as 7.0. The “NaOH necessary for neutralization” value ([5]; 0 hours) was 2.50 mL, the pH of medium ([5]; 3 hours) was 6.90 and the “NaOH necessary for neutralization” value ([5]; 3 hours) was 2.45 mL. For the same compound, the pH of medium ([5]; 6 hours) was 6.90, the “NaOH necessary for neutralization” value ([5]; 6 hours) was 2.40 mL and the pH of medium ([5]; 10 hours) was 6.10. The “NaOH necessary for neutralization” value ([5]; 10 hours) was 3.20 mL, the pH of medium ([5]; 24 hours) was 5.10 and the “NaOH necessary for neutralization” value ([5]; 24 hours) was 6.10 mL. The “formation of acids / acidification (conclusion)” value [5] was “distinct acidification” and the “lowering of the pH to” value [5] was 5.1.

For OC[C@@H](O)[C@@H](O)[C@H](O)[C@@H](O)CO [sorbitol], the laxative effect ([1]; in vivo) is given as “laxative in high doses”.
